Reference: patent publication US10617734B2, “STAT3 and ERK signal pathway inhibitor comprising mogrosides and analogs thereof” (BEIJING UNIVERSITY OF AGRICULTURE, priority 2014, dated 2020)

What was measured:
[1] = tested on: phosphorylated STAT3 (P-STAT3, Tyr705); experiment: Western Blotting of phosphorylated STAT3 in K562 cells; format: cell-based, human; details: leukemia cells K562, 10 μmol/L, 24 hours
Experimental: (§1) The inhibition of the STAT3 and ERK signal pathways achieved by Mogroside I E1, Mogroside II A2 and mogrol was detected by Western Blotting, specifically:
(§2) Group 3: leukemia cells K562 (1×10^6 cells/well) were inoculated into a 6-well culture plate for staying overnight, and 0 and 10 μmol/L of Mogroside I E1 Mogroside II A2 and mogrol were added respectively, and the culture was continued for 24 hours;
(§3) After the termination of the cell culture, the culture solution was removed, and the residue was washed with PBS (0.01 mol/L, pH 7.4), and then a cell lysis solution containing protease inhibitors was added at an amount of 50 μl/well, and the mixture was placed in an ice bath for lysis at 4° C. for 30 min and then centrifuged at 14000 r/min for 10 min, and then total proteins were obtained from the supernatant;
(§4) The protein concentrations were measured with bovine serum albumin (BSA) as the standard. 50 μg of the total proteins was separated by polyacrylamide gel electrophoresis with 12% […], electrophoretically transferred to a PVDF membrane (polyvinylidene fluoride membrane), and blocked for 1 h by 5% of skim milk (containing 0.1% of Tween 20), and then antibodies p-STAT3 (Tyr705) and p-Erk1/2 as well as β-actin were added, and the primary antibody was incubated at 4° C. overnight (β-actin was used as reference in loading amount); the membrane was washed for 3 times with TBS-T, 5 min each time; secondary antibody marked by horseradish peroxidase (HRP) was added for incubation at room temperature for 1 h, the membrane was washed for 3 times with a wash solution (TBS-T), 10 min each time, and then ECL was added for incubation in dark for 5 min, and subsequently, a fluorescence imaging analyzer was used for image development and scanning analysis, and the results of Western Blotting detection are shown in FIGS. 4 to 6.

[2] = tested on: phosphorylated ERK1/2 (P-ERK1/2); experiment: Western Blotting of phosphorylated ERK1/2 in K562 cells; format: cell-based, human; details: leukemia cells K562, 10 μmol/L, 24 hours
Experimental: as §1, §2, §3, §4

[3] = tested on: anti-apoptotic protein Bcl-2; experiment: Western Blotting of Bcl-2 in U937 cells; format: cell-based; details: 10 μmol/L, 24 h
Experimental: The STAT3 and ERK signal pathways can regulate cyclins and apoptosis genes, and in order to verify the effects of […] and mogrol, the expression status of downstream genes of STAT3 and ERK was detected, wherein the influences of the three mogrosides and analogs thereof, i.e. Mogrol I E1, Mogrol II A2 and mogrol, on Bcl-2 and P21 proteins in the histiocytic lymphoma U937 cells, human melanoma A875 cells and leukemia cells K562 were determined, respectively.
The regulation of Bcl-2 and P21 proteins by mogrosides and analog thereof to the was detected by Western Blotting, specifically: histiocytic lymphoma U937 cells, human melanoma A875 cells and leukemia cells K562 (1×10^6 cells/well) were inoculated into a 6-well culture plate overnight, and 0 and 10 μmol/L of the mogrosides and analogs thereof were added respectively, and kept cultured for 24 h. […]
The protein concentration was measured with bovine serum albumin (BSA) as the standard. 50 μg of the total proteins were separated by polyacrylamide gel electrophoresis with 12% SDS, and electrophoretically transferred to a PVDF membrane (polyvinylidene fluoride membrane), and blocked for 1 h by 5% of skim milk (containing 0.1% of Tween 20), and then antibodies P21, Bcl-2 and β-actin were added, wherein the primary antibody was incubated at 4° C. overnight (β-actin was used as reference loading amount); the membrane was washed for 3 times with TBS-T, 5 min each time; secondary antibody marked by horseradish peroxidase (HRP) was added for incubation at room temperature for 1 h, the membrane was washed with rinse solution (TBS-T) for 3 times, 10 min each time, and then ECL was added for incubation in dark for 5 min, and subsequently, a fluorescence imaging analyzer was used for image development and scanning analysis.

leukemia cells K562 [4] = experiment: Cell cycle distribution, PI staining, flow cytometer; format: cell-based, human; details: leukemia cells K562, 10 μmol/L, 24 h
Description: The influences of Mogroside I E1, Mogroside II A2 and mogrol on the cell cycle distribution of the histiocytic lymphoma U937 cells, the human melanoma A875 cells and the leukemia cells K562.
The cell cycle arrest achieved by drugs is an important approach to the inhibition of cancer cell proliferation.

leukemia cells K562 [5] = experiment: Cell morphology, Hoechst 33258 staining, fluorescence microscope; format: cell-based, human; details: leukemia cells K562, 10, 100 and 250 μmol/L, 24-hour culture
Experimental: Lymphoma U937 cells, human melanoma A875 cells and leukemia cells K562 in logarithmic growth phase were selected, and the concentrations of the cells were adjusted to 1×10^4 cells/mL, and the cells were transferred to a 6-well plate for culture, and after the 24-hour culture, drugs were added to achieve final concentrations of 0, 10, 100 and 250 μmol/L, wherein only whole medium was added to the negative control groups, while Mogroside II A2 was added to the positive control groups, after 24-hour culture, waste solution was removed, and fixing solution was added to each well for fixing for 25 min, and then the resulting mixture was washed twice, 3 min each time, and then Hoechst 33258 staining solution was added for staining in dark at room temperature for 30 min, and the cell morphology variation was observed using a fluorescence microscope.

With `C[C@H](CC[C@@H](O)C(C)(C)O)[C@H]1CC[C@@]2(C)[C@@H]3CC=C4[C@@H](CC[C@H](O)C4(C)C)[C@]3(C)[C@H](O)C[C@]12C` [mogrol] the “expression level of phosphorylated STAT3 (P-STAT3)” value [1] was “significantly decreased”, the “expression level of phosphorylated ERK1/2 (P-ERK1/2)” value [2] was “significantly decreased” and the “expression of anti-apoptotic protein Bcl-2” value [3] was “significantly down-regulated”. The “cell cycle distribution (cell cycle arrest)” value (leukemia cells K562 [4]) was “arrested” and the “cell morphology variation (Hoechst 33258)” value (leukemia cells K562 [5]) was “identical to the results of Mogroside II A2”.
